No end group written: not given here.
Target: XOD (xanthine oxidase) enzyme (Sigma, derived from milk) (Bos taurus, UniProt P80457)
Experiment: XOD enzyme activity inhibition (XOD enzyme activity detection kit, uric acid absorption at 295 nm)
Conditions: for IC50: half-inhibitory concentration on XOD; for XOD enzyme activity inhibition: concentration three times the half-inhibitory concentration

XOD (xanthine oxidase) enzyme (Sigma, derived from milk), sequence (P80457 whole entry): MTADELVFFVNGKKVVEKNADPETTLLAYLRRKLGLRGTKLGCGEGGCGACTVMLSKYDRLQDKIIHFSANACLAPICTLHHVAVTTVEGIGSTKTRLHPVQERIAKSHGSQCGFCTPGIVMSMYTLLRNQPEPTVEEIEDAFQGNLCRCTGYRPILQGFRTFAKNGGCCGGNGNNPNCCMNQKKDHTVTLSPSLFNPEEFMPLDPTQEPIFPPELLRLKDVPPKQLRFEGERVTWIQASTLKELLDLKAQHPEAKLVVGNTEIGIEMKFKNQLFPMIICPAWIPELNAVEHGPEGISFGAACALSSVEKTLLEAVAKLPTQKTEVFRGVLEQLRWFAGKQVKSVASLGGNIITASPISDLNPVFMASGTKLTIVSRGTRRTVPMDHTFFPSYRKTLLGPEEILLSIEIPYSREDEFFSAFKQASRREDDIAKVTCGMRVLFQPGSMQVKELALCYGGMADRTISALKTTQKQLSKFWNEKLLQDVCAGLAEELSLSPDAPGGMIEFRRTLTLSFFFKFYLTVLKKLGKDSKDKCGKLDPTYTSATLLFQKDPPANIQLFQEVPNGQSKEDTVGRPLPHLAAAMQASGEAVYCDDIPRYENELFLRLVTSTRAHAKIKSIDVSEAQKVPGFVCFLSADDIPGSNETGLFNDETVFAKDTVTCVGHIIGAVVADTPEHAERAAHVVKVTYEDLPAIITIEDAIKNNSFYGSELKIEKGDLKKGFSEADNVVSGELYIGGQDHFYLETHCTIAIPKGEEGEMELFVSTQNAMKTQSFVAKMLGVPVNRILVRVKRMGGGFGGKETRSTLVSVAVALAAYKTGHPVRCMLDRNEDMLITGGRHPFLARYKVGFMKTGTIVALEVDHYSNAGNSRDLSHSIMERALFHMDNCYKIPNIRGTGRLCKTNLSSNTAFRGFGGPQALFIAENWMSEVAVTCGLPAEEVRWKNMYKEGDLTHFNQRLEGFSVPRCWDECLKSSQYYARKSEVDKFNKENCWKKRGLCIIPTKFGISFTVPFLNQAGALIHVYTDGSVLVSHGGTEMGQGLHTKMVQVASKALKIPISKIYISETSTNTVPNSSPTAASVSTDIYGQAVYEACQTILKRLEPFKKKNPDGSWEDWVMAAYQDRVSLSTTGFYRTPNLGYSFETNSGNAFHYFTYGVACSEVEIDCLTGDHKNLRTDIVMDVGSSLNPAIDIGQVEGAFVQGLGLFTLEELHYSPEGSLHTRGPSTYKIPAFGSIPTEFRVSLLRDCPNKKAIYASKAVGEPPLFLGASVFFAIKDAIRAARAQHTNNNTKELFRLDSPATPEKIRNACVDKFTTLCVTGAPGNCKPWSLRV

Row | Molecule | IC50 (IC50(M), Table 5, molar) | XOD enzyme activity inhibition | IC50 | activity at 20 µg/mL (read-out: XOD activity (%)) | activity at 40 µg/mL (read-out: XOD activity (%)) | activity at 80 µg/mL (read-out: XOD activity (%)) | other results
1 | Oc1ncnc2[nH]ncc12 [Allopurinol, reference compound] |  |  |  |  |  |  | XOD enzyme activity retained (concentration 30 μg/mL): about 10%; activity at 0.2 µg/mL (read-out: XOD activity (%)): 59.4%; activity at 0.4 µg/mL (read-out: XOD activity (%)): 34.7%; activity at 0.8 µg/mL (read-out: XOD activity (%)): 31.2%
2 | TGPLGPSPGP [Peptide S2] | 0.000125 M | completely inhibited | 0.000125 M |  |  |  | activity at 50 µg/mL (read-out: XOD activity (%)): 80%; activity at 100 µg/mL (read-out: XOD activity (%)): 55.8%; activity at 200 µg/mL (read-out: XOD activity (%)): 17.9%
3 | VPSGPLGPEGPR [Peptide S1] | 0.00275 M |  |  |  |  |  | IC50 (same reaction system): 0.00275 M; activity at 2500 µg/mL (read-out: XOD activity (%)): 57.6%; activity at 5000 µg/mL (read-out: XOD activity (%)): 36.7%; activity at 10000 µg/mL (read-out: XOD activity (%)): 26.9%

More lines, in order of falling IC50 (IC50(M), Table 5, molar), values ahead:

Row | IC50 (IC50(M), Table 5, molar) | XOD enzyme activity inhibition | IC50 | activity at 20 µg/mL (read-out: XOD activity (%)) | activity at 40 µg/mL (read-out: XOD activity (%)) | activity at 80 µg/mL (read-out: XOD activity (%)) | Molecule | other results
4 | 6.72e-05 M | completely inhibited | 6.72e-05 M | 87.9% | 67.7% | 43.2% | DNLPPLPK [Peptide S4] | 
5 | 5.82e-05 M | completely inhibited | 5.82e-05 M | 87.2% | 67.3% | 46.9% | HDLPLPLPE [Peptide S3] | 
